The values that follow come from article PMC10254531, “The Effects of 1-O-Acetylbritannilactone Isolated from Inula britannica Flowers on Human Neutrophil Elastase and Inflammation of RAW 264.7 Cells and Zebrafish Larvae” (Molecules, 2023).

In assay [1] the target is T1, human neutrophil elastase (HNE) (Homo sapiens, UniProt P08246).
T1 construct: gene ELANE
T1 sequence (P08246 30-247): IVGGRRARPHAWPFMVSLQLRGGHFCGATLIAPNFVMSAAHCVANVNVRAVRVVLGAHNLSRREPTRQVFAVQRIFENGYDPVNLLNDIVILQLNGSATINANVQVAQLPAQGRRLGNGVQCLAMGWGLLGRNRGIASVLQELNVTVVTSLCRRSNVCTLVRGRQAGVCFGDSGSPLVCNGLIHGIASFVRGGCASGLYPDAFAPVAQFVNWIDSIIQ
Briefly: chromogenic enzyme assay with MeO-Suc-AAPV-pNA; Lineweaver-Burk and Dixon plots. The format is biochemical.

Assay [2] concerns the target T1, human neutrophil elastase (HNE). Briefly: chromogenic enzyme assay with MeO-Suc-AAPV-pNA (positive control). The format is biochemical.

Usually Ki stands for the equilibrium dissociation constant of an inhibitor or competing ligand from its target. In assay [1], `C=C1C(=O)O[C@@H]2CC(C)=C([C@@H](C)CCCOC(C)=O)[C@@H](O)[C@H]12` [ABL, 1-O-acetylbritannilactone] gave a Ki of 2.4 µM. This lies in the single-digit micromolar range. Broadly, the IC50 is the concentration that gives 50% inhibition. A low value points to greater potency in that assay. As for `O=C(O[C@@H]1Cc2c(O)cc(O)cc2O[C@@H]1c1cc(O)c(O)c(O)c1)c1cc(O)c(O)c(O)c1` [epigallocatechin gallate], in assay [2], it took 7.2 ± 0.5 µM to reach half-maximal inhibition (IC50).
